Measured values published in PMC6355318 (Bioorganic & Medicinal Chemistry Letters, 2019).
In brackets after ≈: the same amount, converted by molar mass.

Key:
PfPKG = PfPKG (Plasmodium falciparum, UniProt Q8I719); assay: biochemical; format: biochemical; conditions: for LLE: LLE (pIC50 - mLogD); for IC50: recombinant kinase, read-out: PfPKG pIC50 (converted)
[1] = Measured logD (shake flask); format: physicochemical; conditions: octanol/PBS
Method: LogD measurements were carried out using the shake flask method. […] The ratios of areas of the peaks were used to calculate the LogD in accordance with the equation:
LogD = Log10(Area-TL/Area BL)

[2] = % remaining after 30 mins, mouse liver microsomes, 1 μM
P. falciparum = assay: blood stage hypoxanthine incorporation (HXI) cell-based assay; conditions: Plasmodium falciparum, read-out: Pf HXI pEC50 (converted)
Description: [23] For full details on both biochemical assay and anti-malarial hypoxanthine incorporation (cell based) assay procedures, see reference 14.

[3] = passive permeability, 5 hours at room temperature
Kinetic solubility = format: physicochemical; conditions: PBS pH 7.4 with 2% DMSO, PBS pH7.4, 98:2 PBS:DMSO, 90 minutes, target 200 μM

Chain of PfPKG (Q8I719 whole entry): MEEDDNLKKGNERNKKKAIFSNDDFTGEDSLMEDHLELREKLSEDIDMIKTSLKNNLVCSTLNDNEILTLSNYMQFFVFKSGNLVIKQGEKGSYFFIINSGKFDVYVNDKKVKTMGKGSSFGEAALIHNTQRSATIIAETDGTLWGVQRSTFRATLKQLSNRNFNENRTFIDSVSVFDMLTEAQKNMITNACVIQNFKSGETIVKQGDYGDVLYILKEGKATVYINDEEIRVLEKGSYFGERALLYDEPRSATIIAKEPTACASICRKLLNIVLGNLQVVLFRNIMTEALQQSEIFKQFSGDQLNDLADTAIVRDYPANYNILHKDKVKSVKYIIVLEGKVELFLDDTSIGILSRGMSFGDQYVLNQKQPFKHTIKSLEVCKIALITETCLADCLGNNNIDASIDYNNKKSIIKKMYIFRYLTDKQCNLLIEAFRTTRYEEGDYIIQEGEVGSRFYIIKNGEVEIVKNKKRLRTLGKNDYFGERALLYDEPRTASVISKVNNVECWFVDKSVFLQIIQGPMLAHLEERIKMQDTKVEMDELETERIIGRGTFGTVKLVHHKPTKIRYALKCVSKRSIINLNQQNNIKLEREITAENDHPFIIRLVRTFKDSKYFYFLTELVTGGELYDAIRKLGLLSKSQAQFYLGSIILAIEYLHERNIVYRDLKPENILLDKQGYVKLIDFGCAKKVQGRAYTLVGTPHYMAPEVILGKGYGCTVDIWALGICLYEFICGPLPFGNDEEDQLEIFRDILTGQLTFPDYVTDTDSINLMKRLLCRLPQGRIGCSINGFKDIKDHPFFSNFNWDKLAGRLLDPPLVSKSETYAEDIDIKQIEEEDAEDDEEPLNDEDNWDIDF

Row | LLE (PfPKG) | IC50 (PfPKG) [µM] | fold less biochemically active (PfPKG; compared to 2) [fold] | SMILES | mLogD [1] | MLM % rem [2] [%] | EC50 (P. falciparum) [µM] | PAMPA [3] [×10⁻⁶ cm/s] | solubility kinetic at 1.5 h, 200 µM (Kinetic solubility) [µM]
1 | 5.1 | 0.12 |  | CN(C)Cc1ccn2c(-c3cn[nH]c3)c(-c3ccc(F)cc3)nc2c1 [Compound 9] |  |  |  |  | 
2 | 5.3 | 0.0525 |  | CN(C)Cc1ccn2c(-c3ccnc(N)c3)c(-c3ccc(F)cc3)nc2c1 [Compound 10] |  |  |  |  | 
3 |  | 0.257 |  | CN(C)Cc1ccn2c(-c3ccnc(Nc4ccc(N5CCNCC5)cc4)c3)c(-c3ccc(F)cc3)nc2c1 [Compound 11] |  |  |  |  | 
4 |  | 0.407 |  | CN(C)CCNc1ccc2nc(-c3ccc(F)cc3)c(-c3ccnc(N)n3)n2n1 [Compound 26] | 1.6 | 68 |  | 1 | 
5 | 4.7 | 0.0871 |  | CN(C)Cc1ccn2c(-c3cc(N)ncn3)c(-c3ccc(F)cc3)nc2c1 [Compound 5] |  |  |  |  | 
6 |  | 0.851 |  | CN(C)CCCNc1nccc(-c2c(-c3ccc(F)cc3)nc3ccccn23)n1 [Compound 14] | 1.8 | 62 |  | 8.2 | 
7 | 5.9 | 0.012 |  | CN(C)Cc1ccn2c(-c3ccncn3)c(-c3ccc(F)cc3)nc2c1 [Compound 7, reference compound] |  |  |  |  | 
8 | 4.2 | 0.0776 | ~40 | CN(C)Cc1ccn2c(-c3ccncc3)c(-c3ccc(F)cc3)nc2c1 [Compound 8] |  |  |  |  | 
9 |  | 0.132 |  | Fc1ccc(-c2nc3ccccn3c2-c2ccnc(NC3CCOCC3)n2)cc1 [Compound 15] | 1.8 | 84 |  | 14.5 | 
10 |  | 0.0309 |  | CN(C)Cc1ccc2c(c1)nc(-c1ccc(F)cc1)n2-c1ccnc(N)n1 [Compound 23] | 1.2 | 78 |  | 3.2 | 

The remaining lines, values behind:

Row | SMILES | LLE (PfPKG) | IC50 (PfPKG) [µM] | fold less biochemically active (PfPKG; compared to 2) [fold] | mLogD [1] | MLM % rem [2] [%] | EC50 (P. falciparum) [µM] | PAMPA [3] [×10⁻⁶ cm/s] | solubility kinetic at 1.5 h, 200 µM (Kinetic solubility) [µM]
11 | CN1CCC(c2ccc(Nc3nccc(-c4c(-c5ccc(F)cc5)nc5ccccn45)n3)cc2)CC1 [Compound 17] |  | 0.00501 |  | 3.3 | 55 | 0.158 | 0 | 
12 | CN(C)Cc1ccn2c(-c3ccnc(N)n3)c(-c3ccc(F)cc3)nc2n1 [Compound 20] |  | 0.0813 |  | 2.1 | 67 | 4.07 | 11.8 | 
13 | CN(C)Cc1cc2nc(-c3ccc(F)cc3)c(-c3ccnc(N)n3)n2cn1 [Compound 19] |  | 0.055 |  | 2.1 | 59 | 3.72 | 5.8 | 
14 | CN1CCC(n2cc(Nc3nccc(-c4c(-c5ccc(F)cc5)nc5ccccn45)n3)cn2)CC1 [Compound 18] |  | 0.1 |  | 2.7 | 37 | 0.575 | 12.4 | 237 (≈ 111 µg/mL)
15 | CN(C)Cc1ccc2c(-c3ccnc(N)n3)c(-c3ccc(F)cc3)nn2c1 [Compound 29] |  | 0.00407 |  | 2.5 | 22 | 0.513 | 18.5 | 
16 | CN1CCN(c2ccc(Nc3nccc(-c4c(-c5ccc(F)cc5)nc5ccccn45)n3)cc2)CC1 [Compound 16] |  |  |  | 4.0 | 65 | 0.115 | 0 | 9 (≈ 4.32 µg/mL)
17 | CN(C)Cc1ccn2c(-c3ccnc(N)n3)c(-c3ccc(F)cc3)nc2c1 [Compound 2, reference compound] |  | 0.002 |  |  |  | 0.363 |  | 
